Assay results from patent US11319322B2, “Substituted aryl ether compound, preparation method thereof, pharmaceutical composition and use thereof” (Xiamen University, priority 2017, dated 2022).

Columns and labels:
Assay type in all cases: cell-based
CCDC6-RET-BaF3 = molecular target: T1, CCDC6-RET-BaF3 (Homo sapiens, UniProt P07949); test: Growth inhibition of CCDC6-RET-BaF3 cells stably transfected with kinase (MTS); details: 48 h, read-out: CCDC6-RET (IC50/nM)
T1 construct: fused on or other part: Q16204 (Coiled-coil domain-containing protein 6)
T1 sequence (P07949 whole entry, change not shown, the tested form may be a part): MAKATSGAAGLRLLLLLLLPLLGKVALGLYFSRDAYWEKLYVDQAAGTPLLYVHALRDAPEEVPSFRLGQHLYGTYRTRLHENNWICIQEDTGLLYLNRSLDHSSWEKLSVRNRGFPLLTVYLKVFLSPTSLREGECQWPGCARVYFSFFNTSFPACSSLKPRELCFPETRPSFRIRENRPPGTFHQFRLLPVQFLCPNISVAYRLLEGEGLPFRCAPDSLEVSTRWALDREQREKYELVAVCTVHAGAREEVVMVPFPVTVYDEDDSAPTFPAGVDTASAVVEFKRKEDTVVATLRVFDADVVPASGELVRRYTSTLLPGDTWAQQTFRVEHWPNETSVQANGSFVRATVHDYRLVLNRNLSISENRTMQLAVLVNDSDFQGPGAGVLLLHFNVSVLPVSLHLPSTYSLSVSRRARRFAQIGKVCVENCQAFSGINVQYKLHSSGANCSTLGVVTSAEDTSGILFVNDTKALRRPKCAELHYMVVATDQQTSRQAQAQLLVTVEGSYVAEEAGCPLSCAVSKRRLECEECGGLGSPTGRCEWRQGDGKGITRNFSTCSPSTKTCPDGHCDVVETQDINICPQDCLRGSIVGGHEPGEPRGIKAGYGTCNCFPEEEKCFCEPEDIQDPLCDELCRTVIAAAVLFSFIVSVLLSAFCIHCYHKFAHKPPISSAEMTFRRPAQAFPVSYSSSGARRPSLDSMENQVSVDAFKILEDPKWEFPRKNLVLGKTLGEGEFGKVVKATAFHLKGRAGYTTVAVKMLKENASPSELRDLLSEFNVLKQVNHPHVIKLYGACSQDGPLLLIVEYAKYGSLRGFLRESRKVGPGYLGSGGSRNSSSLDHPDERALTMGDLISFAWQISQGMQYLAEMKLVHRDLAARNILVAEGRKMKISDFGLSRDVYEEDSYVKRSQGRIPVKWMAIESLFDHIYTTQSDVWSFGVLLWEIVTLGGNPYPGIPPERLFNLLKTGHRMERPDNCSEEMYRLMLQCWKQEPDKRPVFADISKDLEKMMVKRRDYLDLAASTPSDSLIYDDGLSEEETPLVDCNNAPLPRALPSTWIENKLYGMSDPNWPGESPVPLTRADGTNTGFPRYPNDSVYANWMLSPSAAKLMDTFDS
Summary of the method: (§1)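 IC50 derived from growth inhibition by MTS absorbance at 490 nm after 48 h compound exposure (top 10 μM, 1:3 steps, 8 points, 0.1% DMSO) of 2×10^4 RET-fusion (CCDC6-RET, KIF5B-RET) or wild-type BaF3 cells per well, in triplicate.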

KIF5B-RET-BaF3 = molecular target: T2, KIF5B-RET-BaF3 (Homo sapiens, UniProt P07949); test: Growth inhibition of KIF5B-RET-BaF3 cells stably transfected with kinase (MTS); details: 48 h, read-out: KIF5B-RET (IC50/nM)
T2 construct: fused on or other part: P33176 (Kinesin-1 heavy chain)
T2 sequence (P07949 whole entry, change not shown, the tested form may be a part): as above
Summary of the method: as §1

wild-type BaF3 = test: Growth inhibition of wild-type BaF3 cells, broad-spectrum toxicity (MTS); details: Mus musculus, 48 h, read-out: WT Ba/F3 (IC50/nM)
Procedure: Growth inhibitory activity of compounds on cell lines stably transfected with kinase
The activity of compounds against kinase RET is evaluated by their effect of inhibiting growth of cell lines stably transfected with kinase CCDC6-RET-BaF3, KIF5B-RET-BaF3, and wild-type BaF3 (Proc. Natl. Acad. Sci. USA., 2006, 103, 3153-8.). The growth of the cell lines stably transfected with kinase CCDC6-RET-BaF3, KIF5B-RET-BaF3 depends on their kinase activity. If a compound can inhibit the activity of the kinase RET per se or the activity of the RET signaling pathway, the compound can inhibit the growth of BaF3 cells stably transfected with kinase. […] Therefore, a larger ratio between IC50 of a compound to wild-type BaF3 and IC50 of the compound to the cell lines stably transfected with kinase CCDC6-RET-BaF3, KIF5B-RET-BaF3 indicates better targeting.
The specific test method is given as follows:
1) Medium: DMEM (Dulbecco's modified eagle medium) or RPMI 1640 (containing 10% fetal bovine serum, 100 μg/mL ampicillin, 100 μg/mL streptomycin).
2) Reagents: MTS reaction solution (containing 2 mg/mL of MTS [3-(4,5-dimethylthiazol-2-yl)-5-(3-carboxymethoxyphenyl)-2-(4-sulfophenyl)-2H-tetrazolium, inner Salt]; 100 μg/mL PES (phenazine […])).
3) Compound test: cells stably transfected with kinase (CCDC6-RET-BaF3, KIF5B-RET-BaF3) or wild-type BaF3 cells (2×10^4 cells/well) were incubated into a 96-well culture plate, the volume of cell culture fluid was 90 μL, and then 10 μL of the compound at each gradient concentration was added (the highest concentration was 10 μM, which was diluted stepwise by ⅓, and 8 concentration points were set in total; the system contained 0.1% DMSO (dimethyl sulfoxide)). The cell plate with uniformly mixed compound was cultured in a cell culture incubator (37° C.; 5% CO2) for 48 h, then 20 μL of MTS reaction solution was added, uniformly mixed and incubated in the cell culture incubator (37° C.; 5% CO2) for 1-4 hr, OD values at 490 nm were measured by a microplate reader (VARIOSKAN FLASH, Thermo). Three parallels were set in each group of experiments, with 0.1% (a final concentration) DMSO as a negative control, and a medium without cells or compounds as a blank control. The cell growth inhibition rate was calculated by the following formula: Cell growth inhibition rate %=1−(ODexperimental group−ODblank group)/(ODnegative group−ODblank group)×100%
4) IC50 calculation: The semi-inhibitory concentration of the compound acting on cell growth was calculated using GradPad Prism 5 software according to the measured cell growth inhibition rate.

GI50 (CCDC6-RET-BaF3) | GI50 (KIF5B-RET-BaF3) | SMILES | IC50 (wild-type BaF3)
2130 nM | 1580 nM | Cc1ccc(Oc2nc(-c3ccccc3)nc3c2ncn3C)cc1NC(=O)c1ccc(CN2CCN(C)CC2)c(C(F)(F)F)c1 [I-j-2] | 2110 nM
1420 nM | 1430 nM | Cc1ccc(Oc2nc(-c3ccc(Cl)cc3)nc3c2ncn3C)cc1NC(=O)c1ccc(CN2CCN(C)CC2)c(C(F)(F)F)c1 [I-j-3] | 1770 nM
1010 nM | 1610 nM | Cc1ccc(Oc2nc(-c3ccc(O)cc3)nc3c2ncn3C)cc1NC(=O)c1ccc(CN2CCN(C)CC2)c(C(F)(F)F)c1 [I-j-4] | 1790 nM
1880 nM | 2370 nM | Cc1ccc(Oc2nc(-c3ccc(N)cc3)nc3c2ncn3C)cc1NC(=O)c1ccc(CN2CCN(C)CC2)c(C(F)(F)F)c1 [I-j-5] | 4200 nM
221 nM | 1180 nM | Cc1ccc(Oc2nc(-c3ccoc3)nc3c2ncn3C)cc1NC(=O)c1ccc(CN2CCN(C)CC2)c(C(F)(F)F)c1 [I-j-6] | 4220 nM
1030 nM | 1440 nM | Cc1ccc(Oc2nc(-c3ccsc3)nc3c2ncn3C)cc1NC(=O)c1ccc(CN2CCN(C)CC2)c(C(F)(F)F)c1 [I-j-7] | 2410 nM
3610 nM |  | CN1CCN(Cc2ccc(NC(=O)c3cccc(Oc4nc(-c5cccnc5)nc5c4ncn5C)c3)cc2C(F)(F)F)CC1 [I-l-2] | 1360 nM
25.2 nM | 5.88 nM | CN1CCN(Cc2ccc(NC(=O)c3cccc(Oc4nc(-c5ccncc5)nc5c4ncn5C)c3)cc2C(F)(F)F)CC1 [I-l-3] | > 10000 nM
504 nM | 810 nM | Cc1ccc(C(=O)Nc2ccc(CN3CCN(C)CC3)c(C(F)(F)F)c2)cc1Oc1nc(-c2ccncc2)nc2[nH]cnc12 [I-m-1] | > 10000 nM
3210 nM | 3640 nM | Cc1ccc(Oc2nc(-c3cccnc3)nc3c2ncn3C)cc1C(=O)Nc1ccc(CN2CCN(C)CC2)c(C(F)(F)F)c1 [I-n-2] | 1610 nM
2370 nM | 3890 nM | Cc1ccc(Oc2nc(-c3cccnc3)nc3[nH]ncc23)cc1NC(=O)c1ccc(CN2CCN(C)CC2)c(C(F)(F)F)c1 [II-j-5] | 7400 nM
7.96 nM | 44.2 nM | Cc1ccc(Oc2nc(-c3ccncc3)nc3[nH]ncc23)cc1NC(=O)c1ccc(CN2CCN(C)CC2)c(C(F)(F)F)c1 [II-j-6] | 4230 nM
567 nM | 1350 nM | CN1CCN(Cc2ccc(C(=O)Nc3cc(Oc4nc(-c5cccnc5)nc5[nH]ncc45)ccc3Cl)cc2C(F)(F)F)CC1 [II-k-3] | 1340 nM
37.7 nM | 104 nM | CN1CCN(Cc2ccc(C(=O)Nc3cc(Oc4nc(-c5ccncc5)nc5[nH]ncc45)ccc3Cl)cc2C(F)(F)F)CC1 [II-k-4] | > 10000 nM
4810 nM | 4360 nM | CN1CCN(Cc2ccc(NC(=O)c3cc(Oc4nc(-c5ccc(N)cc5)nc5nn(C)cc45)ccc3Cl)cc2C(F)(F)F)CC1 [IV-o-9] | 
5700 nM | 7420 nM | Cc1ccc(NC(=O)c2ccc(CN3CCN(C)CC3)c(C(F)(F)F)c2)cc1Oc1nc(-c2ccncc2)nc2ccsc12 [VI-i-2] | 

The next lines start with the molecule.

SMILES | GI50 (CCDC6-RET-BaF3) | GI50 (KIF5B-RET-BaF3) | IC50 (wild-type BaF3)
Cn1cnc2c(Oc3cccc(C(=O)Nc4cccc(C(F)(F)F)c4)c3)nc(-c3ccncc3)nc21 [I-d-2] | 1540 nM | 5710 nM | > 10000 nM
CN1CCN(Cc2ccc(NC(=O)c3cccc(Oc4nc(-c5ccncc5)nc5[nH]cnc45)c3)cc2C(F)(F)F)CC1 [I-l-1] | 476 nM | 1950 nM | > 10000 nM
Cc1ccc(Oc2nc(-c3ccncc3)nc3[nH]cnc23)cc1C(=O)Nc1ccc(CN2CCN(C)CC2)c(C(F)(F)F)c1 [I-n-1] | 298 nM | 900 nM | > 10000 nM
Cc1ccc(C(=O)Nc2cccc(C(F)(F)F)c2)cc1Oc1nc(-c2ccncc2)nc2c1cnn2C [II-e-2] | 1430 nM | 1770 nM | > 10000 nM
CN1CCN(Cc2ccc(C(=O)Nc3cccc(Oc4nc(-c5cccnc5)nc5[nH]ncc45)c3)cc2C(F)(F)F)CC1 [II-h-3] | 343 nM | 820 nM | 4090 nM
CN1CCN(Cc2ccc(C(=O)Nc3cccc(Oc4nc(-c5ccncc5)nc5[nH]ncc45)c3)cc2C(F)(F)F)CC1 [II-h-4] | 78.6 nM | 300 nM | 3930 nM
Cc1ccc(C(=O)Nc2ccc(CN3CCN(C)CC3)c(C(F)(F)F)c2)cc1Oc1nc(-c2cccnc2)nc2[nH]ncc12 [II-m-20] | 10.6 nM | 74.3 nM | > 10000 nM
CN1CCN(Cc2ccc(NC(=O)c3cc(Oc4nc(-c5cccc(N)c5)nc5nn(C)cc45)ccc3Cl)cc2C(F)(F)F)CC1 [IV-o-8] | 172 nM | 152 nM | 
CN1CCN(Cc2ccc(NC(=O)c3cc(Oc4nc(-c5ccoc5)nc5nn(C)cc45)ccc3Cl)cc2C(F)(F)F)CC1 [IV-o-10] | 4290 nM | 3760 nM | 
CN1CCN(Cc2ccc(NC(=O)c3cc(Oc4nc(-c5ccsc5)nc5nn(C)cc45)ccc3Cl)cc2C(F)(F)F)CC1 [IV-o-11] | 3030 nM | 1620 nM | 
Cc1ccc(Oc2cc(-c3cn[nH]c3)nc3[nH]ccc23)cc1C(=O)Nc1ccc(CN2CCN(C)CC2)c(C(F)(F)F)c1 [V-n-12] | 566 nM | 673 nM | 
Cc1ccc(Oc2cc(-c3ccncc3)nc3c2ccn3C)cc1C(=O)Nc1ccc(CN2CCN(C)CC2)c(C(F)(F)F)c1 [V-n-16] | 472 nM | 388 nM | 
Cc1ccc(Oc2cc(-c3ccncc3)nc3[nH]ccc23)cc1C(=O)Nc1cc(CN2CCN(C)CC2)cc(C(F)(F)F)c1 [V-r-1] | 2960 nM | 2810 nM | 
CN1CCN(Cc2ccc(C(=O)Nc3cccc(Oc4cc(-c5ccncc5)nc5sccc45)c3)cc2C(F)(F)F)CC1 [VII-h-2] | 637 nM | 1080 nM | 
Cc1ccc(NC(=O)c2ccc(CN3CCN(C)CC3)c(C(F)(F)F)c2)cc1Oc1cc(-c2ccncc2)nc2sccc12 [VII-i-2] | 1360 nM | 1330 nM | 
Cc1ccc(Oc2cc(-c3cccnc3)nc3sccc23)cc1NC(=O)c1ccc(CN2CCN(C)CC2)c(C(F)(F)F)c1 [VII-j-1] | 811 nM | 1280 nM | 
Cc1ccc(Oc2cc(-c3ccncc3)nc3sccc23)cc1NC(=O)c1ccc(CN2CCN(C)CC2)c(C(F)(F)F)c1 [VII-j-2] | 95.6 nM | 189 nM | 
CN1CCN(Cc2ccc(NC(=O)c3cccc(Oc4cc(-c5cccnc5)nc5sccc45)c3)cc2C(F)(F)F)CC1 [VII-l-1] | 1020 nM | 1350 nM | 
CN1CCN(Cc2ccc(NC(=O)c3cccc(Oc4cc(-c5ccncc5)nc5sccc45)c3)cc2C(F)(F)F)CC1 [VII-l-2] | 215 nM | 315 nM | 
Cc1ccc(Oc2cc(-c3cccnc3)nc3sccc23)cc1C(=O)Nc1ccc(CN2CCN(C)CC2)c(C(F)(F)F)c1 [VII-n-1] | 1690 nM | 1780 nM | 
Cc1ccc(Oc2cc(-c3ccncc3)nc3sccc23)cc1C(=O)Nc1ccc(CN2CCN(C)CC2)c(C(F)(F)F)c1 [VII-n-2] | 221 nM | 405 nM | 
CN1CCN(Cc2ccc(NC(=O)c3cc(Oc4cc(-c5cccnc5)nc5sccc45)ccc3Cl)cc2C(F)(F)F)CC1 [VII-o-1] | 1570 nM | 1630 nM | 
CN1CCN(Cc2ccc(NC(=O)c3cc(Oc4cc(-c5ccncc5)nc5sccc45)ccc3Cl)cc2C(F)(F)F)CC1 [VII-o-2] | 326 nM | 499 nM | 
